Measured values: the supplement of paper PMC10307832

Assays:
Assay in all cases: relative viability (nuclei count vs DMSO), 5 days (fraction); higher = more cells survive
[1] = tested on: A549
Summary of the method: (§1)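 Relative viability was taken as the ratio of nuclei in treated wells to nuclei in vehicle wells. Lung cancer cell lines in 1536-well plates received compounds by pin tool one day after seeding, either one drug alone or a fixed anchor-drug dose plus five library-drug doses (not always all listed) in √10 steps. Nuclei were counted on 4× images after 5 days of treatment, and values are medians of duplicate plates.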

[2] = tested on: CAL-12T
Summary of the method: as §1

[3] = tested on: Calu-6
Summary of the method: as §1

[4] = tested on: EBC-1
Summary of the method: as §1

[5] = tested on: IA-LM
Summary of the method: as §1

[6] = tested on: LK-2
Summary of the method: as §1

[7] = tested on: NCI-H1299
Summary of the method: as §1

[8] = tested on: NCI-H1703
Summary of the method: as §1

[9] = tested on: NCI-H1650
Summary of the method: as §1

`NC(=O)Nc1cc(-c2cccc(F)c2)sc1C(=O)N[C@H]1CCCNC1` [AZD7762] + C[C@]1(O)C[C@@H](c2nc(-c3ccc4ccc(-c5ccccc5)nc4c3)c3c(N)nccn32)C1 [Linsitinib] (partner 1 µM) showed a relative viability ([1]; first compound 0.01 µM) of 0.564, a relative viability ([1]; first compound 0.03162 µM) of 0.577 and a relative viability ([1]; first compound 0.1 µM) of 0.705. The relative viability ([1]; first compound 0.3162 µM) was 0.616, the relative viability ([1]; first compound 1 µM) was 0.494 and the relative viability ([2]; first compound 0.01 µM) was 0.91. It also gave a relative viability ([2]; first compound 0.03162 µM) of 0.725, a relative viability ([2]; first compound 0.1 µM) of 0.984 and a relative viability ([2]; first compound 0.3162 µM) of 0.844. For the same molecule, the relative viability ([2]; first compound 1 µM) was 0.288, the relative viability ([3]; first compound 0.01 µM) was 1.02 and the relative viability ([3]; first compound 0.03162 µM) was 0.964. For the same molecule, the relative viability ([3]; first compound 0.1 µM) was 0.944, the relative viability ([3]; first compound 0.3162 µM) was 0.649 and the relative viability ([3]; first compound 1 µM) was 0.14. For the same molecule, the relative viability ([4]; first compound 0.01 µM) was 1.01, the relative viability ([4]; first compound 0.03162 µM) was 0.877 and the relative viability ([4]; first compound 0.1 µM) was 1.03. It also gave a relative viability ([4]; first compound 0.3162 µM) of 0.884, a relative viability ([4]; first compound 1 µM) of 0.76 and a relative viability ([5]; first compound 0.01 µM) of 0.713. For the same molecule, the relative viability ([5]; first compound 0.03162 µM) was 0.663, the relative viability ([5]; first compound 0.1 µM) was 0.629 and the relative viability ([5]; first compound 0.3162 µM) was 0.628. It also gave a relative viability ([5]; first compound 1 µM) of 0.47, a relative viability ([6]; first compound 0.01 µM) of 0.691 and a relative viability ([6]; first compound 0.03162 µM) of 0.597. For the same molecule, the relative viability ([6]; first compound 0.1 µM) was 0.618, the relative viability ([6]; first compound 0.3162 µM) was 0.645 and the relative viability ([6]; first compound 1 µM) was 0.308. The relative viability ([7]; first compound 0.01 µM) was 0.99, the relative viability ([7]; first compound 0.03162 µM) was 0.995 and the relative viability ([7]; first compound 0.1 µM) was 1.04. The relative viability ([7]; first compound 0.3162 µM) was 1, the relative viability ([7]; first compound 1 µM) was 0.323 and the relative viability ([8]; first compound 0.01 µM) was 0.688. It also gave a relative viability ([8]; first compound 0.03162 µM) of 0.164, a relative viability ([8]; first compound 0.1 µM) of 0.181 and a relative viability ([8]; first compound 0.3162 µM) of 0.164. For the same molecule, the relative viability ([8]; first compound 1 µM) was 0.177.
For `O=C(O)c1ccc(-c2c[nH]c3ncc(-c4ccccc4)cc23)cc1C1CCCC1` + CC(C)C[C@H](NC(=O)[C@H](Cc1ccccc1)NC(=O)c1cnccn1)B(O)O [Bortezomib] (partner 0.002 µM), the relative viability ([2]; first compound 0.04 µM) was 0.911, the relative viability ([2]; first compound 0.1265 µM) was 1.17 and the relative viability ([2]; first compound 0.4 µM) was 0.883. For the same molecule, the relative viability ([2]; first compound 1.265 µM) was 0.792, the relative viability ([3]; first compound 0.04 µM) was 0.912 and the relative viability ([3]; first compound 0.1265 µM) was 1. For the same molecule, the relative viability ([3]; first compound 0.4 µM) was 0.907, the relative viability ([3]; first compound 1.265 µM) was 0.661 and the relative viability ([4]; first compound 0.04 µM) was 0.567. It also gave a relative viability ([4]; first compound 0.1265 µM) of 0.583, a relative viability ([4]; first compound 0.4 µM) of 0.452 and a relative viability ([4]; first compound 1.265 µM) of 0.308. For the same molecule, the relative viability ([5]; first compound 0.04 µM) was 0.915, the relative viability ([5]; first compound 0.1265 µM) was 0.868 and the relative viability ([5]; first compound 0.4 µM) was 0.761. For the same molecule, the relative viability ([5]; first compound 1.265 µM) was 0.658, the relative viability ([7]; first compound 0.04 µM) was 1.05 and the relative viability ([7]; first compound 0.1265 µM) was 1.03. It also gave a relative viability ([7]; first compound 0.4 µM) of 0.986, a relative viability ([7]; first compound 1.265 µM) of 0.893 and a relative viability ([9]; first compound 0.04 µM) of 0.185. It also gave a relative viability ([9]; first compound 0.1265 µM) of 0.208, a relative viability ([9]; first compound 0.4 µM) of 0.205 and a relative viability ([9]; first compound 1.265 µM) of 0.178. It also gave a relative viability ([8]; first compound 0.1265 µM) of 0.235, a relative viability ([8]; first compound 0.4 µM) of 0.3 and a relative viability ([8]; first compound 1.265 µM) of 0.433.
For `NC(=O)Nc1cc(-c2cccc(F)c2)sc1C(=O)N[C@H]1CCCNC1` [AZD7762] + CC(C)C[C@H](NC(=O)[C@H](Cc1ccccc1)NC(=O)c1cnccn1)B(O)O [Bortezomib] (partner 0.002 µM), the relative viability ([2]; first compound 0.01 µM) was 0.96, the relative viability ([2]; first compound 0.03162 µM) was 1.06 and the relative viability ([2]; first compound 0.1 µM) was 0.931. It also gave a relative viability ([2]; first compound 0.3162 µM) of 0.641, a relative viability ([2]; first compound 1 µM) of 0.23 and a relative viability ([3]; first compound 0.01 µM) of 1.03. The relative viability ([3]; first compound 0.03162 µM) was 0.96, the relative viability ([3]; first compound 0.1 µM) was 0.782 and the relative viability ([3]; first compound 0.3162 µM) was 0.245. For the same molecule, the relative viability ([3]; first compound 1 µM) was 0.152, the relative viability ([4]; first compound 0.01 µM) was 0.633 and the relative viability ([4]; first compound 0.03162 µM) was 0.508. It also gave a relative viability ([4]; first compound 0.1 µM) of 0.566, a relative viability ([4]; first compound 0.3162 µM) of 0.493 and a relative viability ([4]; first compound 1 µM) of 0.309. For the same molecule, the relative viability ([5]; first compound 0.01 µM) was 1.05, the relative viability ([5]; first compound 0.03162 µM) was 0.851 and the relative viability ([5]; first compound 0.1 µM) was 1.22. For the same molecule, the relative viability ([5]; first compound 0.3162 µM) was 1.14, the relative viability ([5]; first compound 1 µM) was 0.253 and the relative viability ([7]; first compound 0.01 µM) was 1.07. It also gave a relative viability ([7]; first compound 0.03162 µM) of 1.04, a relative viability ([7]; first compound 0.1 µM) of 1.04 and a relative viability ([7]; first compound 0.3162 µM) of 1.04. For the same molecule, the relative viability ([7]; first compound 1 µM) was 0.964, the relative viability ([9]; first compound 0.01 µM) was 0.217 and the relative viability ([9]; first compound 0.03162 µM) was 0.205. The relative viability ([9]; first compound 0.1 µM) was 0.211, the relative viability ([9]; first compound 0.3162 µM) was 0.203 and the relative viability ([9]; first compound 1 µM) was 0.204. For the same molecule, the relative viability ([8]; first compound 0.01 µM) was 0.409, the relative viability ([8]; first compound 0.03162 µM) was 0.182 and the relative viability ([8]; first compound 0.1 µM) was 0.167. For the same molecule, the relative viability ([8]; first compound 0.3162 µM) was 0.176 and the relative viability ([8]; first compound 1 µM) was 0.124.
